Measurements as given in the supplement of paper PMC4862054.
Values joined by “and” are separate entries in the source; they are usually repeats but may differ in a detail not shown here. Equal values may be shown once.

Tests used:
[1] = system: HCC1143; settings: 72 h
Method in brief: (§1)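 Viability of breast cancer cell lines was measured with CellTiter-Blue after 72 h of incubation on compound-loaded 384-well plates. Cells were seeded in 20 µl onto compound dissolved in 5 µl medium, and 2.5 µl reagent was added for 2 h at 37 °C before reading at 560/590 nm. EC50 was fitted from percent-inhibition dose-response data censored at the highest concentration, normalised per plate to vehicle and a positive kill control, with zero drug sensitivity score rows dropped.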

[2] = system: BT-549; settings: 72 h
Method in brief: as §1

[3] = system: Hs578T; settings: 72 h
Method in brief: as §1

[4] = system: HCC1599; settings: 72 h
Method in brief: as §1

[5] = system: MDA-MB-436; settings: 72 h
Method in brief: as §1

[6] = system: MDA-MB-468; settings: 72 h
Method in brief: as §1

[7] = system: SK-BR-3; settings: 72 h
Method in brief: as §1

[8] = system: CAL-120; settings: 72 h
Method in brief: as §1

[9] = system: CAL-85-1; settings: 72 h
Procedure: (§2)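 Drug sensitivity and resistance testing (DSRT) of breast cancer cell lines in 384-well plates, 5 concentrations in 10-fold dilutions over a compound-specific 10,000-fold range. After 72 h, cytotoxicity was read by CellTox Green fluorescence and viability by CellTiter-Glo luminescence (multiplexed), normalised to DMSO and benzethonium chloride controls. EC50 is the inflection point of the fitted dose-response curve (bottom asymptote free, so it can be relative for partial curves) and is censored at the highest tested concentration. Rows with DSS 0 (no meaningful response) were excluded.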

[10] = system: Hs578T; settings: 72 h; remark: listed apart in the source
Procedure: as §2

[11] = system: DU-4475; test: normalised viability (% of control), CellTiter-Blue; higher = more viable cells (about 100 = DMSO control); settings: incubation time: 72 h
Procedure: (§3)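 DSRT, CellTiter-Blue viability, 72 h incubation. Signal is normalised to DMSO and benzethonium chloride controls. Value is the normalised response at dose 9.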

[12] = system: HDQ-P1; test: as above; settings: incubation time: 72 h
Procedure: as §3

[13] = system: CAL-85-1; test: as above; settings: incubation time: 72 h
Procedure: as §3

[14] = system: CAL-148; test: as above; settings: incubation time: 72 h
Procedure: as §3

[15] = system: MDA-MB-453; test: as above; settings: incubation time: 72 h
Procedure: as §3

[16] = system: CAL-51; test: as above; settings: incubation time: 72 h
Procedure: as §3

[17] = system: MFM-223; settings: 72 h
Method in brief: as §1

[18] = system: HCC1937; settings: 72 h
Method in brief: as §1

[19] = system: BT-549; settings: 72 h; remark: listed apart in the source
Procedure: as §2

[20] = system: MDA-MB-231; settings: 72 h
Method in brief: as §1

[21] = system: CAL-51; settings: 72 h
Procedure: as §2

[22] = system: MDA-MB-468; settings: 72 h; remark: listed apart in the source
Procedure: as §2

[23] = system: BT-474; settings: 72 h
Procedure: as §2

| SMILES | EC50, CellTiter-Blue viability [1] [nM] | EC50, CellTiter-Blue viability [2] [nM] | EC50, CellTiter-Blue viability [3] [nM] | EC50, CellTiter-Blue viability [6] [nM] | normalised viability [11] | normalised viability [12] | normalised viability [13] | normalised viability [14] | normalised viability [15] | normalised viability [16] | EC50, CellTiter-Blue viability [18] [nM] | also measured |
| --- | --- | --- | --- | --- | --- | --- | --- | --- | --- | --- | --- | --- |
| CC[C@H](CO)Nc1nc(NCc2ccccc2)c2ncn(C(C)C)c2n1 [Roscovitine] | > 10000 | 684 | 7660 |  |  |  |  |  |  |  |  | EC50, CellTiter-Blue viability [4]: 2290 nM; EC50, CellTiter-Blue viability [5]: 2500 nM |
| CN(Cc1cnc2nc(N)nc(N)c2n1)c1ccc(C(=O)N[C@@H](CCC(=O)O)C(=O)O)cc1 [Methotrexate] | 15.2 |  | 51.5 | 25.1 |  |  |  |  |  |  |  | EC50, CellTiter-Blue viability [7]: 23.5 nM; EC50, CellTiter-Blue viability [8]: 15.9 nM; EC50, CellTox Green [9]: > 50000 nM; EC50, CellTox Green [10]: 11 µM |
| CC(C)C[C@H](NC(=O)[C@@H](COC(C)(C)C)NC(=O)[C@H](Cc1ccc(O)cc1)NC(=O)[C@H](CO)NC(=O)[C@H](Cc1c[nH]c2ccccc12)NC(=O)[C@H](Cc1cnc[nH]1)NC(=O)[C@@H]1CCC(=O)N1)C(=O)N[C@@H](CCCNC(=N)N)C(=O)N1CCC[C@H]1C(=O)NNC(N)=O [Goserelin] (10000 nM) |  |  |  |  | 104% | 140% | 84.9% | 102% | 89.8% | 109% |  |  |
| CC(C)(C)NC(=O)[C@H]1CC[C@H]2[C@@H]3CC[C@H]4NC(=O)C=C[C@]4(C)[C@H]3CC[C@]12C [Finasteride] |  |  |  |  |  |  |  |  |  |  |  | EC50, CellTiter-Blue viability [17]: 8260 nM |
| Cn1cc(C2=C(c3cn(C4CCN(Cc5ccccn5)CC4)c4ccccc34)C(=O)NC2=O)c2ccccc21 [Enzastaurin] | 418 | 857 | 873 |  |  |  |  |  |  |  | 5370 | EC50, CellTiter-Blue viability [17]: 642 nM; EC50, CellTiter-Blue viability [7]: 667 nM; EC50, CellTiter-Blue viability [5]: 129 nM |
| CNC(=O)c1ccccc1Sc1ccc2c(/C=C/c3ccccn3)n[nH]c2c1 [Axitinib] (10000 nM) |  |  |  |  | 21.1% | 67.3% | 67.2% | 42.1% | 46.2% | 37.3% |  |  |
| Cc1cn(-c2cc(NC(=O)c3ccc(C)c(Nc4nccc(-c5cccnc5)n4)c3)cc(C(F)(F)F)c2)cn1 [Nilotinib] |  | 2590 |  |  |  |  |  |  |  |  | 117 | EC50, CellTox Green [10]: > 10 µM |
| O=C(CCCCCCC(=O)Nc1ccccc1)NO [Vorinostat] (10000 nM) |  |  |  |  | 50.1% and 46.5% | 51.6% and 62.6% | 30.1% and 32.4% | 13.3% and 16% | 3.12% and 2.8% | 59.7% and 50.3% |  |  |
| CO[C@@]12[C@H](COC(N)=O)C3=C(C(=O)C(C)=C(N)C3=O)N1C[C@@H]1N[C@@H]12 [Mitomycin C] (10000 nM) |  |  |  |  | -0.46% | 42.6% | 2.67% | 1.89% | 5.36% | 4.34% |  |  |
| O=C(O)CNC(=O)c1c(O)c2ccccc2n(Cc2ccccc2)c1=O [IOX-2] |  |  |  |  |  |  |  |  |  |  |  | EC50, CellTox Green [19]: 1170 nM |
| CNC(=O)c1ccccc1Sc1ccc2c(/C=C/c3ccccn3)n[nH]c2c1 [Axitinib] | 2570 | 2180 |  | 6660 |  |  |  |  |  |  | 1370 | EC50, CellTiter-Blue viability [20]: 1170 nM; EC50, CellTiter-Blue viability [17]: 163 nM; EC50, CellTiter-Blue viability [5]: 91.7 nM; EC50, CellTox Green [21]: 1180 nM |
| CC(O)(CS(=O)(=O)c1ccc(F)cc1)C(=O)Nc1ccc(C#N)c(C(F)(F)F)c1 (stereo unspecified) [Bicalutamide] |  |  |  | > 10000 |  |  |  |  |  |  |  |  |
| Nc1ccn([C@@H]2O[C@H](CO)[C@@H](O)C2(F)F)c(=O)n1 [Gemcitabine] | 9.03 | 19.1 | 9.36 | 13.5 |  |  |  |  |  |  | 20.5 | EC50, CellTiter-Blue viability [20]: 4.41 nM; EC50, CellTiter-Blue viability [17]: 673 nM; EC50, CellTiter-Blue viability [7]: 11.8 nM; EC50, CellTiter-Blue viability [4]: 233 nM; EC50, CellTiter-Blue viability [5]: 22.2 nM; EC50, CellTiter-Blue viability [8]: 9.03 nM; EC50, CellTox Green [9]: 99.7 nM; EC50, CellTox Green [22]: 5.64 nM; EC50, CellTox Green [21]: 7.56 nM |
| CC(C)C[C@H](NC(=O)[C@@H](COC(C)(C)C)NC(=O)[C@H](Cc1ccc(O)cc1)NC(=O)[C@H](CO)NC(=O)[C@H](Cc1c[nH]c2ccccc12)NC(=O)[C@H](Cc1cnc[nH]1)NC(=O)[C@@H]1CCC(=O)N1)C(=O)N[C@@H](CCCNC(=N)N)C(=O)N1CCC[C@H]1C(=O)NNC(N)=O [Goserelin] |  |  |  |  |  |  |  |  |  |  |  | EC50, CellTox Green [23]: > 10 µM |
| C=CCn1c(=O)c2cnc(Nc3ccc(N4CCN(C)CC4)cc3)nc2n1-c1cccc(C(C)(C)O)n1 [MK1775] (10000 nM) |  |  |  |  | 2.68% | 16% | 17.4% | 5.88% | 15.2% | 2.98% |  |  |
| C=CCN(/C=C1/C(=O)O[C@H](COC)[C@@]2(C)C1=C(O)C(=O)C1=C2[C@H](OC(C)=O)C[C@]2(C)C(=O)CC[C@@H]12)CC=C [PX-866] | 1130 |  | 6750 | 1390 |  |  |  |  |  |  | 725 | EC50, CellTiter-Blue viability [20]: 951 nM; EC50, CellTiter-Blue viability [7]: 1320 nM; EC50, CellTiter-Blue viability [8]: 1020 nM |
| C/C(=C\c1csc(C)n1)[C@@H]1C[C@@H]2O[C@]2(C)CCC[C@H](C)[C@H](O)[C@@H](C)C(=O)C(C)(C)[C@@H](O)CC(=O)N1 [Ixabepilone] | 371 | 510 | 625 | 834 |  |  |  |  |  |  | 371 | EC50, CellTiter-Blue viability [20]: 84.3 nM; EC50, CellTiter-Blue viability [17]: 322 nM; EC50, CellTiter-Blue viability [7]: 274 nM; EC50, CellTiter-Blue viability [5]: 173 nM; EC50, CellTiter-Blue viability [8]: 333 nM; EC50, CellTox Green [19]: 10.8 nM; EC50, CellTox Green [9]: 437 nM; EC50, CellTox Green [21]: 38.4 nM |
| C/C(=C\c1csc(C)n1)[C@@H]1C[C@@H]2O[C@]2(C)CCC[C@H](C)[C@H](O)[C@@H](C)C(=O)C(C)(C)[C@@H](O)CC(=O)N1 [Ixabepilone] (1000 nM) |  |  |  |  | 21.5% | 37% | 36.9% | 20.9% | 5.47% | 57.9% |  |  |
| CO[C@@H]1[C@H](N(C)C(=O)c2ccccc2)C[C@H]2O[C@]1(C)n1c3ccccc3c3c4c(c5c6ccccc6n2c5c31)C(=O)NC4 [Midostaurin] (10000 nM) |  |  |  |  | 3.76% | 80.1% | 78.9% | 86.3% | 61.4% | 4.73% |  |  |
| CC(C)n1cnc2c(NCCc3ccc(O)cc3)nc(-c3csc4ccccc34)nc21 [StemRegenin 1] |  |  |  |  |  |  |  |  |  |  |  | EC50, CellTox Green [23]: > 10 µM |
